Results published in patent US20230085307A1, “PYRIDAZINONE COMPOUND AND HERBICIDE” (NISSAN CHEMICAL CORPORATION, priority 2019, published 2023).

Key:
redroot pigweed [1] = test: Test Example 5: herbicidal effect by foliage application, plastic box (Table 20, symbol N); format: in vivo, redroot pigweed (Amaranthus retroflexus); conditions: foliage application, AAH 320 g/ha, evaluated three weeks after application
Outline: (§1)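 Post-emergence foliar test in sterilized diluvial soil. Compound applied as water-diluted emulsion at a predetermined rate to 14-day-old plants; evaluation at three weeks.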

Italian ryegrass [2] = test: Test Example 5: herbicidal effect by foliage application, plastic box (Table 20, symbol K); format: in vivo, Italian ryegrass (Lolium multiflorum); conditions: foliage application, AAH 320 g/ha, evaluated three weeks after application
Outline: as §1

lambsquarters [3] = test: Test Example 4: herbicidal effect by soil treatment (Table 19, symbol O); format: in vivo, lambsquarters (Chenopodium album); conditions: amount of applied herbicide 320 g/ha
Outline: (§2)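 Scoring uses the grading scale of an earlier test, three weeks post-application. Treatment consists of spraying a diluted emulsion formulation across the surface of sterilized diluvial soil in which seeds are buried near 1.5 cm deep; boxes are kept in a greenhouse between 25° C. and 30° C.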

velvetleaf [4] = test: Test Example 4: herbicidal effect by soil treatment (Table 19, symbol M); format: in vivo, velvetleaf (Abutilon theophrasti); conditions: amount of applied herbicide 320 g/ha
Outline: as §2

barnyard grass [5] = test: Test Example 3: herbicidal effect by foliage application, Wagner pot (Table 18, symbol H); format: in vivo, barnyard grass (Echinochloa crus-galli); conditions: amount of applied herbicide 320 g/ha
Outline: (§3)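 Plants were sown in alluvial soil held under 0.1–0.5 cm standing water and grown 14 days in a greenhouse at 25–30 °C. An emulsifiable formulation, water-diluted to the set dose, was then sprayed onto the foliage, and effects were scored three weeks later using previously defined criteria.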

windgrass [6] = test: Test Example 5: herbicidal effect by foliage application, plastic box (Table 20, symbol L); format: in vivo, windgrass (Apera spica-venti); conditions: foliage application, AAH 320 g/ha, evaluated three weeks after application
Outline: as §1

persian speedwell [7] = test: Test Example 5: herbicidal effect by foliage application, plastic box (Table 20, symbol R); format: in vivo, Persian speedwell (Veronica persica); conditions: foliage application, AAH 320 g/ha, evaluated three weeks after application
Outline: as §1

blackgrass [8] = test: Test Example 4: herbicidal effect by soil treatment (Table 19, symbol J); format: in vivo, blackgrass (Alopecurus myosuroides); conditions: amount of applied herbicide 320 g/ha
Outline: as §2

lambsquarters [9] = test: Test Example 5: herbicidal effect by foliage application, plastic box (Table 20, symbol O); format: in vivo, lambsquarters (Chenopodium album); conditions: foliage application, AAH 320 g/ha, evaluated three weeks after application
Outline: as §1

late watergrass = test: Test Example 1: herbicidal activity, application before weed generation under submerged conditions (Table 16, symbol A); format: in vivo, late watergrass (Echinochloa oryzicola); conditions: 320 g/ha applied herbicide
Outline: (§4)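 Emulsion formulation, water-diluted to set dose, was put onto the flooded surface (4 cm depth, alluvial soil) the same day weeds were sown and 2.5-leaf rice transplanted. After 3 weeks at 25-30 °C under glass, each species was rated 0 (≤5% kill) to 5 (≥90% kill).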

redroot pigweed [10] = test: Test Example 4: herbicidal effect by soil treatment (Table 19, symbol N); format: in vivo, redroot pigweed (Amaranthus retroflexus); conditions: amount of applied herbicide 320 g/ha
Outline: as §2

rice flat sedge = test: Test Example 3: herbicidal effect by foliage application, Wagner pot (Table 18, symbol E); format: in vivo, rice flat sedge (Cyperus iria); conditions: amount of applied herbicide 320 g/ha
Outline: as §3

oval-leafed pondweed = test: Test Example 1: herbicidal activity, application before weed generation under submerged conditions (Table 16, symbol C); format: in vivo, oval-leafed pondweed (Monochoria vaginalis); conditions: 320 g/ha applied herbicide
Outline: as §4

Japanese bulrush = test: Test Example 1: herbicidal activity, application before weed generation under submerged conditions (Table 16, symbol B); format: in vivo, Japanese bulrush (Schoenoplectus juncoides); conditions: 320 g/ha applied herbicide
Outline: as §4

windgrass [11] = test: Test Example 4: herbicidal effect by soil treatment (Table 19, symbol L); format: in vivo, windgrass (Apera spica-venti); conditions: amount of applied herbicide 320 g/ha
Outline: as §2

blackgrass [12] = test: Test Example 5: herbicidal effect by foliage application, plastic box (Table 20, symbol J); format: in vivo, blackgrass (Alopecurus myosuroides); conditions: foliage application, AAH 320 g/ha, evaluated three weeks after application
Outline: as §1

Chinese sprangletop = test: Test Example 3: herbicidal effect by foliage application, Wagner pot (Table 18, symbol D); format: in vivo, chinese sprangletop (Leptochloa chinensis); conditions: amount of applied herbicide 320 g/ha
Outline: as §3

Italian ryegrass [13] = test: Test Example 4: herbicidal effect by soil treatment (Table 19, symbol K); format: in vivo, Italian ryegrass (Lolium multiflorum); conditions: amount of applied herbicide 320 g/ha
Outline: as §2

barnyard grass [14] = test: Test Example 4: herbicidal effect by soil treatment (Table 19, symbol H); format: in vivo, barnyard grass (Echinochloa crus-galli); conditions: amount of applied herbicide 320 g/ha
Outline: as §2

false cleavers = test: Test Example 5: herbicidal effect by foliage application, plastic box (Table 20, symbol Q); format: in vivo, false cleavers (Galium spurium); conditions: foliage application, AAH 320 g/ha, evaluated three weeks after application
Outline: as §1

persian speedwell [15] = test: Test Example 4: herbicidal effect by soil treatment (Table 19, symbol R); format: in vivo, Persian speedwell (Veronica persica); conditions: amount of applied herbicide 320 g/ha
Outline: as §2

chickweed [16] = test: Test Example 4: herbicidal effect by soil treatment (Table 19, symbol P); format: in vivo, common chickweed (Stellaria media); conditions: amount of applied herbicide 320 g/ha
Outline: as §2

southern crabgrass [17] = test: Test Example 5: herbicidal effect by foliage application, plastic box (Table 20, symbol F); format: in vivo, southern crabgrass (Digitaria ciliaris); conditions: foliage application, AAH 320 g/ha, evaluated three weeks after application
Outline: as §1

southern crabgrass [18] = test: Test Example 4: herbicidal effect by soil treatment (Table 19, symbol F); format: in vivo, southern crabgrass (Digitaria ciliaris); conditions: amount of applied herbicide 320 g/ha
Outline: as §2

wild oat [19] = test: Test Example 5: herbicidal effect by foliage application, plastic box (Table 20, symbol I); format: in vivo, wild oat (Avena fatua); conditions: foliage application, AAH 320 g/ha, evaluated three weeks after application
Outline: as §1

velvetleaf [20] = test: Test Example 5: herbicidal effect by foliage application, plastic box (Table 20, symbol M); format: in vivo, velvetleaf (Abutilon theophrasti); conditions: foliage application, AAH 320 g/ha, evaluated three weeks after application
Outline: as §1

barnyard grass [21] = test: Test Example 5: herbicidal effect by foliage application, plastic box (Table 20, symbol H); format: in vivo, barnyard grass (Echinochloa crus-galli); conditions: foliage application, AAH 320 g/ha, evaluated three weeks after application
Outline: as §1

green foxtail [22] = test: Test Example 5: herbicidal effect by foliage application, plastic box (Table 20, symbol G); format: in vivo, green foxtail (Setaria viridis); conditions: foliage application, AAH 320 g/ha, evaluated three weeks after application
Outline: as §1

green foxtail [23] = test: Test Example 4: herbicidal effect by soil treatment (Table 19, symbol G); format: in vivo, green foxtail (Setaria viridis); conditions: amount of applied herbicide 320 g/ha
Outline: as §2

wild oat [24] = test: Test Example 4: herbicidal effect by soil treatment (Table 19, symbol I); format: in vivo, wild oat (Avena fatua); conditions: amount of applied herbicide 320 g/ha
Outline: as §2

chickweed [25] = test: Test Example 5: herbicidal effect by foliage application, plastic box (Table 20, symbol P); format: in vivo, common chickweed (Stellaria media); conditions: foliage application, AAH 320 g/ha, evaluated three weeks after application
Outline: as §1

`Cc1nn(C)c(=O)c(-c2c(-c3ccc(OC(F)F)cc3)sc3ccc(F)cc23)c1OS(=O)(=O)c1ccc(Cl)cc1` [2-311] was tested, and the “N: redroot pigweed, herbicidal effect (criteria 0-5)” value (redroot pigweed [1]) was 5 (Herbicidal rate of 90% or more (almost completely withered)), the “K: Italian ryegrass, herbicidal effect (criteria 0-5)” value (Italian ryegrass [2]) was 5 (Herbicidal rate of 90% or more (almost completely withered)) and the “herbicidal effect on O: lambsquarters” value (lambsquarters [3]) was 5 (Herbicidal rate of 90% or more (almost completely withered)). The “herbicidal effect on M: velvetleaf” value (velvetleaf [4]) was 2 (Herbicidal rate of 20% or more and less than 40%), the “herbicidal effect on H: barnyard grass” value (barnyard grass [5]) was 5 (Herbicidal rate of 90% or more (almost completely withered)) and the “L: windgrass, herbicidal effect (criteria 0-5)” value (windgrass [6]) was 4 (Herbicidal rate of 70% or more and less than 90%). The “R: persian speedwell, herbicidal effect (criteria 0-5)” value (persian speedwell [7]) was 5 (Herbicidal rate of 90% or more (almost completely withered)), the “herbicidal effect on J: blackgrass” value (blackgrass [8]) was 0 (Herbicidal rate of 5% or less (almost no effect)) and the “O: lambsquarters, herbicidal effect (criteria 0-5)” value (lambsquarters [9]) was 5 (Herbicidal rate of 90% or more (almost completely withered)). For the same compound, the “Herbicidal effect on A: late watergrass (grade 0-5)” value (late watergrass) was 3 (Herbicidal rate of 40% or more and less than 70%), the “herbicidal effect on N: redroot pigweed” value (redroot pigweed [10]) was 4 (Herbicidal rate of 70% or more and less than 90%) and the “herbicidal effect on E: rice flat sedge” value (rice flat sedge) was 4 (Herbicidal rate of 70% or more and less than 90%). For the same compound, the “Herbicidal effect on C: oval-leafed pondweed (grade 0-5)” value (oval-leafed pondweed) was 3 (Herbicidal rate of 40% or more and less than 70%), the “Herbicidal effect on B: Japanese bulrush (grade 0-5)” value (Japanese bulrush) was 3 (Herbicidal rate of 40% or more and less than 70%) and the “herbicidal effect on L: windgrass” value (windgrass [11]) was 0 (Herbicidal rate of 5% or less (almost no effect)). For the same compound, the “J: blackgrass, herbicidal effect (criteria 0-5)” value (blackgrass [12]) was 3 (Herbicidal rate of 40% or more and less than 70%), the “herbicidal effect on D: Chinese sprangletop” value (Chinese sprangletop) was 2 (Herbicidal rate of 20% or more and less than 40%) and the “herbicidal effect on K: Italian ryegrass” value (Italian ryegrass [13]) was 4 (Herbicidal rate of 70% or more and less than 90%). The “herbicidal effect on H: barnyard grass” value (barnyard grass [14]) was 0 (Herbicidal rate of 5% or less (almost no effect)), the “Q: false cleavers, herbicidal effect (criteria 0-5)” value (false cleavers) was 5 (Herbicidal rate of 90% or more (almost completely withered)) and the “herbicidal effect on R: persian speedwell” value (persian speedwell [15]) was 4 (Herbicidal rate of 70% or more and less than 90%). For the same compound, the “herbicidal effect on P: chickweed” value (chickweed [16]) was 3 (Herbicidal rate of 40% or more and less than 70%), the “F: southern crabgrass, herbicidal effect (criteria 0-5)” value (southern crabgrass [17]) was 2 (Herbicidal rate of 20% or more and less than 40%) and the “herbicidal effect on F: southern crabgrass” value (southern crabgrass [18]) was 0 (Herbicidal rate of 5% or less (almost no effect)). The “I: wild oat, herbicidal effect (criteria 0-5)” value (wild oat [19]) was 3 (Herbicidal rate of 40% or more and less than 70%), the “M: velvetleaf, herbicidal effect (criteria 0-5)” value (velvetleaf [20]) was 5 (Herbicidal rate of 90% or more (almost completely withered)) and the “H: barnyard grass, herbicidal effect (criteria 0-5)” value (barnyard grass [21]) was 5 (Herbicidal rate of 90% or more (almost completely withered)). The “G: green foxtail, herbicidal effect (criteria 0-5)” value (green foxtail [22]) was 5 (Herbicidal rate of 90% or more (almost completely withered)), the “herbicidal effect on G: green foxtail” value (green foxtail [23]) was 0 (Herbicidal rate of 5% or less (almost no effect)) and the “herbicidal effect on I: wild oat” value (wild oat [24]) was 0 (Herbicidal rate of 5% or less (almost no effect)). The “P: chickweed, herbicidal effect (criteria 0-5)” value (chickweed [25]) was 5 (Herbicidal rate of 90% or more (almost completely withered)).
